US20180282323A1, “Mesoionic imidazole derivatives as insecticides” (BAYER CROPSCIENCE AKTIENGESELLSCHAFT, priority 2015, published 2018)
Read-outs that look alike come from different tables or passages of the source.

Legend:
Diabrotica balteata = Diabrotica balteata spray test; format: in vivo; conditions: application rate 160 μg/well, wheat grains with beetle larvae, after 7 days
Procedure: Diabrotica balteata—Spray Test Solvent: 78 parts by weight of acetone • • 1.5 parts by weight of dimethylformamide Emulsifier: alkylaryl polyglycol ether
(§1) To produce a suitable active ingredient formulation, 1 part by weight of active ingredient is dissolved with the stated parts by weight of solvent and made up with water containing an emulsifier concentration of 1000 ppm until the desired concentration is attained. To produce further test concentrations, the formulation is diluted with emulsifier-containing water.
Pre-swollen wheat grains (Triticum aestivum) are incubated in a multiwell plate filled with agar and a little water for one day (5 seed grains per cavity). The germinated wheat grains are sprayed with an active ingredient formulation of the desired concentration. Subsequently, each cavity is infected with 10-20 beetle larvae of Diabrotica balteata.
After 7 days, the efficacy in % is determined. 100% means that all wheat plants have grown as in the untreated, uninfected control; 0% means that no wheat plant has grown.

Myzus persicae [1] = test: Myzus persicae oral test; format: in vivo; conditions: application rate 20 ppm, oral uptake through parafilm, after 5 days
Method in brief: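 Oral feeding format: mixed-stage Myzus persicae imbibe acetone/water compound formulation in sugared IPL41 medium through parafilm. Efficacy assessed as percent aphids killed at day 5.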

Myzus persicae [2] = test: Myzus persicae spray test (Chinese cabbage leaf discs); format: in vivo; conditions: application rate 500 g/ha, after 6 days
Procedure: Myzus persicae—Spray Test Solvent: 78 parts by weight of acetone • • 1.5 parts by weight of dimethylformamide Emulsifier: alkylaryl polyglycol ether
as §1
Discs of Chinese cabbage leaves (Brassica pekinensis) infested by all stages of the green peach aphid (Myzus persicae) are sprayed with an active ingredient formulation of the desired concentration.
After 6 days, the efficacy in % is determined. 100% means that all the aphids have been killed; 0% means that no aphids have been killed.

[3] = log P by HPLC on reversed-phase column (EEC directive 79/831 Annex V.A8); format: physicochemical; conditions: for log p: HPLC on reversed-phase column (footnote a); for log p a): HPLC on reversed-phase column
Method in brief: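 Reversed-phase (C18) HPLC at 43° C, following EEC directive 79/831 Annex V.A8.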

Boophilus microplus = Boophilus microplus injection test; format: in vivo; conditions: application rate 20 μg/animal, assessed after 7 days by laying of fertile eggs
Procedure: Boophilus microplus—Injection Test Solvent: dimethyl sulphoxide
To produce a suitable active ingredient formulation, 10 mg of active ingredient are mixed with 0.5 ml of solvent and the concentrate is diluted with solvent to the desired concentration.
1 μl of the active ingredient solution is injected into the abdomen of 5 engorged adult female cattle ticks (Boophilus microplus). The animals are transferred into dishes and kept in a climate-controlled room.
Efficacy is assessed after 7 days by laying of fertile eggs. Eggs which are not visibly fertile are stored in a climate-controlled cabinet until the larvae hatch after about 42 days. An efficacy of 100% means that none of the ticks has laid any fertile eggs; 0% means that all the eggs are fertile.

Myzus persicae [4] = test: Myzus persicae spray test (bell pepper plants); format: in vivo; conditions: application rate 100 ppm, after 6 days
Procedure: Myzus persicae—Spray Test Solvent: 14 parts by weight of dimethylformamide Emulsifier: alkylaryl polyglycol ether
as §1, with “water. If the addition of ammonium salts or/and penetrants is required, these are each added in a concentration of 1000 ppm to the formulation solution.” for “water.”
Bell pepper plants (Capsicum annuum) severely infested with the green peach aphid (Myzus persicae) are treated by spraying with the active ingredient formulation in the desired concentration.
After 6 days, the kill in % is determined. 100% means that all of the aphids have been killed; 0% means that none of the aphids have been killed.

Lucilia cuprina = Lucilia cuprina test; format: in vivo; conditions: application rate 100 ppm, L1 larvae, after 2 days
Procedure: Lucilia cuprina Test Solvent: dimethyl sulphoxide
To produce a suitable active ingredient formulation, 10 mg of active ingredient are mixed with 0.5 ml of dimethyl sulphoxide, and the concentrate is diluted with water to the desired concentration.
About 20 L1 larvae of the Australian sheep blowfly (Lucilia cuprina) are transferred into a test vessel containing minced horsemeat and the active ingredient formulation of the desired concentration.
After 2 days, the kill in % is determined. 100% means that all the larvae have been killed; 0% means that no larvae have been killed.

O=C(Cn1cc(Cl)cn1)c1c([O-])n(Cc2ccc(Cl)nc2)c2cccc[n+]12 [Example I-1-004]
efficacy (Diabrotica balteata): 100% | efficacy (Myzus persicae [1]): 100% | efficacy (Myzus persicae [2]): 90% | log p [3]: 1.96

Cc1ccn(CC(=O)c2c([O-])n(Cc3cnc(Cl)s3)c3cccc[n+]23)n1 [Example I-1-012]
efficacy (Myzus persicae [1]): 100% | efficacy (Boophilus microplus): 100% | efficacy (Myzus persicae [2]): 90% | log p [3]: 1.63

COc1cnn(CC(=O)c2c([O-])n(Cc3cnc(Cl)s3)c3cccc[n+]23)c1 [Example I-1-013]
efficacy (Myzus persicae [1]): 100% | efficacy (kill in %) (Myzus persicae [4]): 85% | log p [3]: 1.58

CC(C)OCC(=O)c1c([O-])n(Cc2ccc(Cl)nc2)c2cccc[n+]12 [Example I-1-016]
efficacy (Myzus persicae [1]): 100% | efficacy (Boophilus microplus): 100% | efficacy (Myzus persicae [2]): 100% | log p [3]: 1.67

CCOCC(=O)c1c([O-])n(Cc2ccc(Cl)nc2)c2cccc[n+]12 [Example I-1-020]
efficacy (Diabrotica balteata): 100% | efficacy (Myzus persicae [1]): 100% | efficacy (Boophilus microplus): 80% | efficacy (Myzus persicae [2]): 90% | log p [3]: 1.39

CC(C)SCC(=O)c1c([O-])n(Cc2cnc(Cl)s2)c2cccc[n+]12 [Example I-1-027]
efficacy (Diabrotica balteata): 100% | efficacy (Myzus persicae [1]): 100% | efficacy (Myzus persicae [2]): 100% | log p [3]: 2.27 | efficacy (kill in %) (Lucilia cuprina): 90%

CCSCC(=O)c1c([O-])n(Cc2cnc(Cl)s2)c2cccc[n+]12 [Example I-1-028, 1-[(2-Chloro-1,3-thiazol-5-yl)methyl]-3-[(ethylsulphanyl)acetyl]-1H-imidazo[1,2-a]pyridin-4-ium-2-olate]
efficacy (Diabrotica balteata): 100% | pest or weed control at 20 ppm (Myzus persicae [1]; Myzus persicae, 120 h, read-out: efficacy): 100% | efficacy (Myzus persicae [2]): 90% | chromatographic logP [3]: 1.99 | chromatographic logP ([3]; pH 2.7): 1.99

CC(=O)c1c([O-])n(Cc2ccc(Cl)nc2)c2cccc[n+]12 [Example I-1-036]
efficacy (Diabrotica balteata): 100% | efficacy (Myzus persicae [1]): 100% | efficacy (Myzus persicae [2]): 90% | log p [3]: 1.2

CSc1cnn(CC(=O)c2c([O-])n(Cc3cnc(Cl)s3)c3cccc[n+]23)c1 [Example I-1-044]
efficacy (Myzus persicae [1]): 100% | efficacy (kill in %) (Myzus persicae [4]): 80% | log p [3]: 1.97

O=C(Cn1cc(C(F)(F)F)cn1)c1c([O-])n(Cc2cnc(Cl)s2)c2cccc[n+]12 [Example I-1-045]
efficacy (Diabrotica balteata): 80% | efficacy (Myzus persicae [1]): 100% | efficacy (kill in %) (Myzus persicae [4]): 95% | log p [3]: 2.37

O=C(Cn1ccnc1Cl)c1c([O-])n(Cc2cnc(Cl)s2)c2cccc[n+]12 [Example I-1-046]
efficacy (Myzus persicae [1]): 100% | efficacy (kill in %) (Myzus persicae [4]): 95% | log p [3]: 1.44

CSc1ccn(CC(=O)c2c([O-])n(Cc3ccc(Cl)nc3)c3cccc[n+]23)n1 [Example I-1-054]
efficacy (Myzus persicae [1]): 100% | efficacy (Boophilus microplus): 100% | efficacy (Myzus persicae [2]): 100% | log p [3]: 1.35

CC(=O)N(CC(=O)c1c([O-])n(Cc2cnc(Cl)s2)c2cccc[n+]12)C1CC1 [Example I-1-062]
efficacy (Myzus persicae [1]): 100% | efficacy (kill in %) (Myzus persicae [4]): 95% | log p [3]: 1.58

COCCOCC(=O)c1c([O-])n(Cc2cnc(Cl)s2)c2cccc[n+]12 [Example I-1-087]
efficacy (Diabrotica balteata): 100% | efficacy (Myzus persicae [1]): 100% | efficacy (Myzus persicae [2]): 100% | log p [3]: 1.38 | efficacy (kill in %) (Lucilia cuprina): 100%

O=C(CO)c1c([O-])n(Cc2cnc(Cl)s2)c2cccc[n+]12 [Example I-1-089]
efficacy (Myzus persicae [1]): 100% | log p [3]: 1.14 | efficacy (kill in %) (Lucilia cuprina): 90%

CCOCC(=O)c1c([O-])n(Cc2ccc(Cl)nc2)c2ccc(C)c[n+]12 [Example I-1-113]
efficacy (Myzus persicae [1]): 100% | efficacy (kill in %) (Myzus persicae [4]): 95% | log p [3]: 1.66

CCOCC(=O)c1c([O-])n(Cc2ccc(Cl)nc2)c2cccc(C)[n+]12 [Example I-1-114]
efficacy (Myzus persicae [1]): 100% | efficacy (kill in %) (Myzus persicae [4]): 85% | log p [3]: 1.47

O=C(Nc1ccccc1)c1c([O-])n(Cc2cnc(Cl)s2)c2cccc[n+]12 [Example I-1-145]
efficacy (Diabrotica balteata): 100% | efficacy (Myzus persicae [1]): 100% | efficacy (kill in %) (Myzus persicae [4]): 100% | log p [3]: 2.73 | efficacy (kill in %) (Lucilia cuprina): 100%

O=C(NC1CC1)c1c([O-])n(Cc2cncnc2)c2cccc[n+]12 [Example I-1-152]
efficacy (Myzus persicae [1]): 100% | efficacy (Boophilus microplus): 80% | efficacy (Myzus persicae [2]): 90% | log p [3]: 0.84

COCC(=O)c1c([O-])n(Cc2ccc(Cl)nc2)c2ccc(F)c[n+]12 [Example I-1-165]
efficacy (Myzus persicae [1]): 100% | efficacy (Boophilus microplus): 100% | efficacy (Myzus persicae [2]): 90% | log p [3]: 1.39

COCC(=O)c1c([O-])n(Cc2cnc(Cl)c(Cl)c2)c2cccc[n+]12 [Example I-1-179]
efficacy (Myzus persicae [1]): 100% | efficacy (kill in %) (Myzus persicae [4]): 95% | log p [3]: 1.66

COCC(=O)c1c([O-])n(Cc2ccc(Cl)nc2)c2c(C)ccc[n+]12 [Example I-1-193]
efficacy (Myzus persicae [1]): 100% | efficacy (kill in %) (Myzus persicae [4]): 100% | log p [3]: 1.38

Cc1cnc(Cn2c([O-])c(C(=O)NC3CC3)[n+]3ccccc23)cn1 [Example I-1-217]
efficacy (Myzus persicae [1]): 100% | efficacy (Boophilus microplus): 80% | efficacy (Myzus persicae [2]): 100% | log p a) [3]: 1.13

O=C(Nc1ccc(F)cc1)c1c([O-])n(Cc2cnc(Cl)s2)c2cccc[n+]12 [Example I-1-227]
efficacy (Diabrotica balteata): 100% | efficacy (Myzus persicae [1]): 100% | efficacy (kill in %) (Myzus persicae [4]): 99% | log p a) [3]: 2.82

O=C(Nc1c(F)cccc1F)c1c([O-])n(Cc2cnc(Cl)s2)c2cccc[n+]12 [Example I-1-231]
efficacy (Diabrotica balteata): 100% | efficacy (Myzus persicae [1]): 100% | efficacy (kill in %) (Myzus persicae [4]): 99% | log p a) [3]: 2.43

CNC(=O)c1c([O-])n(C(C)c2ccc(Cl)nc2)c2cccc[n+]12 (centres unmarked) [Example I-1-246]
efficacy (Diabrotica balteata): 100% | efficacy (Myzus persicae [1]): 90% | efficacy (Myzus persicae [2]): 90% | log p a) [3]: 1.41

Cc1ccc[n+]2c(C(=O)NC3(C#N)CC3)c([O-])n(Cc3ccc(Cl)nc3)c12 [Example I-1-252]
efficacy (Myzus persicae [1]): 90% | efficacy (kill in %) (Myzus persicae [4]): 95% | log p a) [3]: 1.78

CCCNC(=O)c1c([O-])n(Cc2cnc(Cl)s2)c2c(C)ccc[n+]12 [Example I-1-267]
efficacy (Diabrotica balteata): 100% | efficacy (Myzus persicae [2]): 90% | log p a) [3]: 2.26

O=C(Nc1c(Cl)cccc1Cl)c1c([O-])n(Cc2cnc(Cl)s2)c2cccc[n+]12 [Example I-1-282]
efficacy (Diabrotica balteata): 100% | efficacy (Myzus persicae [1]): 100% | efficacy (Myzus persicae [2]): 90% | log p a) [3]: 2.8

O=C(Nc1c(F)cccc1Cl)c1c([O-])n(Cc2cnc(Cl)s2)c2cccc[n+]12 [Example I-1-283]
efficacy (Diabrotica balteata): 100% | efficacy (Myzus persicae [1]): 100% | efficacy (Myzus persicae [2]): 100% | log p a) [3]: 2.57

O=C(Nc1ncccc1F)c1c([O-])n(Cc2cnc(Cl)s2)c2cccc[n+]12 [Example I-1-284]
efficacy (Diabrotica balteata): 80% | efficacy (Myzus persicae [1]): 100% | efficacy (Myzus persicae [2]): 90% | log p a) [3]: 1.68

Cc1ccc[n+]2c(C(=O)Nc3c(F)cccc3F)c([O-])n(C(C)c3cnc(Cl)s3)c12 (centres unmarked) [Example I-1-288]
efficacy (Diabrotica balteata): 100% | efficacy (Myzus persicae [1]): 100% | log p a) [3]: 2.76

Cc1ccc[n+]2c(C(=O)COC(C)C)c([O-])n(Cc3cnc(Cl)s3)c12 [Example I-1-292]
efficacy (Diabrotica balteata): 100% | efficacy (Myzus persicae [1]): 100% | efficacy (Myzus persicae [2]): 90% | log p a) [3]: 1.97
